Test results as given in patent US4647586A, “Pharmaceutical oil-in-water type micro-emulsion” (priority 1984, dated 1987).

What was measured:
[1] = system: abnormal 3-legged gait (brewers yeast-inflamed paw); experiment: Reversal of abnormal 3-legged gait in rats (analgesic activity); format: in vivo, SD-strain male rats; settings: Rattus norvegicus, iv, read-out: ED50 (dose causing at least 50% reversal of gait score in 50% of the rats)
Method: (a) Experimental animals: SD-strain male rats (120-165 g).
(§1) (b) Test drugs: The same as in A-1 [Test 2].
A 40% suspension of dried brewers yeast in physiological saline was injected (0.25 ml/rat) subcutaneously into the planter surface of the left hind paw of each rat. Three hours later, the walking gait on a wire mesh platform was assessed for each rat.
0 = Normal gait in the presence of a severely
0.5 = As above, with intermittent mild limping.
1.0 = Constant limping, but continuous use of
1.5 = Limping with occasional 3-legged gait
2.0 = Continous 3-Legged gait and/or only the
Any rat not showing a gait score of 2 was eliminated from this test. Drugs and vehicles were then administered intravenously. Measurements of the gait were made at 1, 2, 3 and 4 hours after drug administration.

[2] = system: brewer's yeast-induced fever; experiment: Effects on body temperature in pyretic rats (antipyretic activity); format: in vivo, SD-strain male rats; settings: iv, 17 h, read-out: ED50 (dose reducing body temperature by at least 1.5° C. in 50% of the rats)
Method: (a) Experimental animals SD-strain male rats (120-185 g).
as §1
Male Sprague-Dawley rats, weighing 120-185 g, were injected subcutaneously in the nape of the neck with 2 ml of a 20% suspension of dried brewers yeast in physiological saline. Drugs and vehicles were administered intravenously 17 hours after treatment of yeast suspension. Rectal temperature was recorded with a thermistor type thermometer (Natsume Seisakusho, BMA-77 Type) just prior to drug administration and at 1/2, 1, 2 and 4 hours after drug administration.

[3] = system: Adjuvant-induced polyarthritis; experiment: Adjuvant-induced polyarthritis in rats, adjuvant-injected paw [Test 2]; format: in vivo, SD-strain female rats
Method: (a) Experimental animals: SD-strain famale rats 140-180g).
as §1
Rats were anesthetized with ether inhalation, and 0.6 mg of Mycobacterium butyricum suspended in 0.1 ml of white paraffin oil was immediately injected intradermally into the planter surface of the left hind paw of each rat via a 27 gauge needle fitted to a 0.5 ml syringe (day 0). On the 14th day after the adjuvant injection, arthritis-established rats selected by development of secondary lesions were used. Volumes of both hind paws in arthritis-established rats were measured by a plethysmometer (UGO BASILE), and the rats were randomized on the basis of the edema volume in the adjuvant-injected paw. Once daily, beginning on the 14th day up to the 18th day, drugs and vehicles were administered intravenously. Measurements of both paw volumes were performed every day from the 15th day up to the 18th day, and on the 21st day and the 24th day. The inhibition percent were calculated in accordance with the calculation formula as in [Test 1] of A-1.

[4] = system: Carrageenin-induced paw edema; experiment: Carrageenin-induced paw edema in rats [Test 2]; format: in vivo, SD-strain male rats
Method: (a) Experimental animals: SD-strain male rats (120-180 g).
A micro-emulsion containing ethyl 4-biphenylylacetate prepared as in Examples 11, 12, 13 and 14 given hereinafter was administered at a dose of 5 ml per kg of the animals. Venolipid® (Morishita Pharmaceutical Co., Ltd.) was used as a vehicle control. As control drugs, a solution or suspension of ethyl 4-biphenylylacetate in physiological saline containing 0.5% Cremophor EL® (Sigma Chemical Company, a solubilizing agent), 0.2% of polyethylene glycol 400 and 10% of dimethyl sulfoxide, a physiological saline solution of sodium 4-biphenylylacetate and a physiological saline solution of Aspirin DL-lysine [Venopirin®, Green Cross Co.] were used. As the vehicle control of the control drugs, the above solvents were used.
A 1% carrageenin solution in physiological saline was injected subcutaneously in an amount of 0.05 ml into the planter surface of the left hind paw of each rat via a 25 gauge needle fitted to a 0.25 ml syringe. One hour after carrageenin injection, the rats were randomized on the basis of the edema volume, and intravenous administration of the drugs and vehicles followed immediately. The volume of the left hind paw was measured by a plethysmometer (Ugo Basile) prior to the injection of the carrageenin solution and at 2, 3, 4, 5 and 6 hours after the carrageenin injection. As the volume of edema, an increase in the paw volume was taken.
The inhibition percents were calculated in accordance with the same calculation formula as in Test 1.

CC(=O)Oc1ccccc1C(=O)O (racemic) [Aspirin-DL.Lysine]
ED50 [1]: 93.2 mg/kg | ED50 [2]: 76.3 mg/kg | Inhibition (%) ([3]; 50 mg/kg/day i.v. as aspirin, day 15): -2.7% | Inhibition (%) ([3]; 50 mg/kg/day i.v. as aspirin, day 16): -5.2% | Inhibition (%) ([3]; 50 mg/kg/day i.v. as aspirin, day 17): -3.8% | Inhibition (%) ([3]; 50 mg/kg/day i.v. as aspirin, day 18): -2.6% | Inhibition (%) ([3]; 50 mg/kg/day i.v. as aspirin, day 21): -12.4% | Inhibition (%) ([3]; 50 mg/kg/day i.v. as aspirin, day 24): -20.0% | Inhibition (%) ([3]; 100 mg/kg/day i.v. as aspirin, day 15): 4.0% | Inhibition (%) ([3]; 100 mg/kg/day i.v. as aspirin, day 16): 9.2% | Inhibition (%) ([3]; 100 mg/kg/day i.v. as aspirin, day 17): 13.2% | Inhibition (%) ([3]; 100 mg/kg/day i.v. as aspirin, day 18): 6.8% | Inhibition (%) ([3]; 100 mg/kg/day i.v. as aspirin, day 21): 4.2% | Inhibition (%) ([3]; 100 mg/kg/day i.v. as aspirin, day 24): -2.8% | Inhibition (%) ([3]; 200 mg/kg/day i.v. as aspirin, day 15): 6.7% | Inhibition (%) ([3]; 200 mg/kg/day i.v. as aspirin, day 16): 11.3% | Inhibition (%) ([3]; 200 mg/kg/day i.v. as aspirin, day 17): 16.4% | Inhibition (%) ([3]; 200 mg/kg/day i.v. as aspirin, day 18): 15.3% | Inhibition (%) ([3]; 200 mg/kg/day i.v. as aspirin, day 21): 7.2% | Inhibition (%) ([3]; 200 mg/kg/day i.v. as aspirin, day 24): 6.2% | ED20 ([3]; Rattus norvegicus, iv, read-out: ED20 (dose required to cause a 20% inhibition of adjuvant-injected paw volume)): 320 mg/kg | Inhibition (%) ([4]; 50 mg/kg i.v. as aspirin, 2 h after carrageenin): 24.2% | Inhibition (%) ([4]; 50 mg/kg i.v. as aspirin, 3 h after carrageenin): 26.7% | Inhibition (%) ([4]; 50 mg/kg i.v. as aspirin, 4 h after carrageenin): 35.7% | Inhibition (%) ([4]; 50 mg/kg i.v. as aspirin, 5 h after carrageenin): 29.6% | Inhibition (%) ([4]; 50 mg/kg i.v. as aspirin, 6 h after carrageenin): 30.0% | Inhibition (%) ([4]; 100 mg/kg i.v. as aspirin, 2 h after carrageenin): 24.2% | Inhibition (%) ([4]; 100 mg/kg i.v. as aspirin, 3 h after carrageenin): 26.7% | Inhibition (%) ([4]; 100 mg/kg i.v. as aspirin, 4 h after carrageenin): 26.8% | Inhibition (%) ([4]; 100 mg/kg i.v. as aspirin, 5 h after carrageenin): 22.2% | Inhibition (%) ([4]; 100 mg/kg i.v. as aspirin, 6 h after carrageenin): 20.0% | Inhibition (%) ([4]; 200 mg/kg i.v. as aspirin, 2 h after carrageenin): 37.9% | Inhibition (%) ([4]; 200 mg/kg i.v. as aspirin, 3 h after carrageenin): 43.3% | Inhibition (%) ([4]; 200 mg/kg i.v. as aspirin, 4 h after carrageenin): 50.0% | Inhibition (%) ([4]; 200 mg/kg i.v. as aspirin, 5 h after carrageenin): 42.6% | Inhibition (%) ([4]; 200 mg/kg i.v. as aspirin, 6 h after carrageenin): 44.0% | ED30 ([4]; Rattus norvegicus, iv, read-out: ED30 (dose required to cause a 30% inhibition of edema volume)): 81.6 mg/kg
